Data set [1] is described as follows: Photochemical property of compound assessed as hypsochromic shift by measuring maximum absorption peak wavelength at 10 uM upon visible light irradiation at 420 nm by UV-Vis absorption spectroscopy. It is filed as physicochemical.
Data set [2] in a line: Photochemical property of compound assessed as maximum fluorescence emission wavelength at 10 uM upon visible light irradiation at 420 nm by UV-Vis absorption spectroscopy. It is filed as physicochemical.
The nature of data set [3]: Prodrug photolysis assessed as drug degradation at 10 uM upon light irradiation at 420 nm for upto 4 mins by HPLC analysis. It is filed as ADME.
Data set [4] is described as follows: Stability in PBS buffer at pH 7.4 at 37 degreeC assessed as compound remaining under dark condition measured for 72 hrs by HPLC analysis. Type of data set: physicochemical. The settings on record: read-out: Stability.
Data set [5] concerns A549. Briefly: Effect on transcriptomic profile in human A549 cells at 0.1 uM incubated for 24 hrs by RNA-sequencing analysis. Type of data set: functional, cell-based.
The subject of data set [6] is A549. Briefly: Effect on transcriptomic profile in human A549 cells at 0.1 uM incubated for 24 hrs followed by light irradiation at 420 nm for 4 mins by RNA-sequencing analysis. Type of data set: functional, cell-based. The settings on record: time 1444.0 min.
The subject of data set [7] is A549. As to the kind of experiment: Effect on transcriptomic profile in human A549 cells assessed as differentially expressed genes at 0.1 uM incubated for 24 hrs followed by light irradiation at 420 nm for 4 mins by RNA-sequencing analysis relative to control. It is filed as functional. The settings on record: time 1444 min, 24.07 h.
Data set [8] concerns A549. Briefly: Effect on cell cycle-related pathway in human A549 cells at 0.1 uM incubated for 24 hrs by GSEA analysis. It is filed as functional, cell-based.
For data set [9], the system named is A549. As to the kind of experiment: Effect on DNA replication-related pathway in human A549 cells at 0.1 uM incubated for 24 hrs by GSEA analysis. Type of data set: functional, cell-based.
Data set [10] deals with A549. Briefly: Effect on cell cycle-related pathway in human A549 cells at 0.1 uM incubated for 24 hrs followed by light irradiation at 420 nm for 4 mins by GSEA analysis. Type of data set: functional, cell-based. The settings on record: time 1444.0 min.
Data set [11] deals with A549. Briefly: Effect on DNA replication-related pathway in human A549 cells at 0.1 uM incubated for 24 hrs followed by light irradiation at 420 nm for 4 mins by GSEA analysis. Type of data set: functional, cell-based. The settings on record: time 1444.0 min.
Data set [12] has as its system A549. Briefly: Antiproliferative activity against human A549 cells assessed as cell viability at 10 uM incubated for 24 hrs followed by light irradiation at 420 nm for 4 mins and measured after 48 hrs by MTT assay relative to control. It is filed as functional. The settings on record: A549, light or radiation study, 72.07 h, time 4324 min, read-out: Activity. In general terms: Tetrazolium assays rely on reduction of a dye to a coloured formazan, in cell work by metabolically active cells.

The test system of data set [13] is A549. Briefly: Antiproliferative activity against human A549 cells assessed as cell viability at 10 uM incubated for 72 hrs by MTT assay relative to control. Type of data set: functional. The settings on record: read-out: Activity.
The test system of a further data set is HUVEC. Briefly: Cytotoxicity against HUVEC cells at 50 uM incubated for 72 hrs under dark condition. Type of data set: toxicity, cell-based. The settings on record: human.
For data set [14], the target named is Protein arginine N-methyltransferase 6 (Homo sapiens) (UniProt Q96LA8). Briefly: Inhibition of PRMT6 in human A549 cells assessed as decrease in H3R2me2a level at 0.1 uM incubated for 24 hrs by Western blot analysis. Type of data set: cell-based. (In general: A western blot detects proteins with antibodies after separation by electrophoresis.)
Sequence of Protein arginine N-methyltransferase 6 (Homo sapiens) (Q96LA8 whole entry, looked up): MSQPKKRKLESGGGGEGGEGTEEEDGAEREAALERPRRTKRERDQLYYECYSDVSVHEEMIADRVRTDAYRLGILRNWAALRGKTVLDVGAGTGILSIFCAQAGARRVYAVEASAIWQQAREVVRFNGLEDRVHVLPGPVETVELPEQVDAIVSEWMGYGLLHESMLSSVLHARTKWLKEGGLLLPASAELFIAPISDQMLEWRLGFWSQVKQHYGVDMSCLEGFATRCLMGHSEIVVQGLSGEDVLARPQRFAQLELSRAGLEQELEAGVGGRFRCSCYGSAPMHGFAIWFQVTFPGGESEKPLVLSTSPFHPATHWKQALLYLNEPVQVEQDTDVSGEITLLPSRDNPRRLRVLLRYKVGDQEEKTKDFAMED
For data set [15] the target is unchanged. As to the kind of experiment: Inhibition of PRMT6 in human A549 cells assessed as decrease in H4R3me2a level at 0.1 uM incubated for 24 hrs by Western blot analysis. Type of data set: cell-based.

Each structure is given as a SMILES string. Calls of active or inactive are those of the source. No cut-off for these calls is given here.

As to `CCN(CC)c1ccc2c(COC(=O)NCCN(C)Cc3c[nH]cc3-c3ccc(OC(C)C)cc3)cc(=O)oc2c1`, the Activity is 380 nm in data set [1]; 470 nm in data set [2]; “No effect” in the data set with A549 [5]; “Active; About 5.4:1 Ratio Between Down-Regulated And Upregulated Genes Observed” in the data set on A549 [6]; ~56% in the data set on A549 [7]; “No effect” in the data set on A549 [8]. Also, the Activity entry was “No effect” with A549 [9], “Active; Downregulation Of Gene Sets Observed” in the data set on A549 [10], “Active; Downregulation Of Gene Sets Observed” with A549 [11] and “Non-toxic” in the data set on HUVEC. In addition, the Stability entry in [3] is recorded as “Unstable”. The remaining at 72 h in data set [4] is > 75%. Further, the values for the viability at 10 µM in the data set with A549 [12] and in the data set on A549 [13] were 79.4% and 94.6%, respectively.

On to `CC(C)Oc1ccc(-c2c[nH]cc2CN(C)CCN)cc1`, for which the inhibition result in [14] and in [15] was “Active” in each case.

Source of the values: ChEMBL document CHEMBL6103597, “Opto-Epigenetic Regulation of Histone Arginine Asymmetric Dimethylation via Type I Protein Arginine Methyltransferase Inhibition” (J Med Chem, 2025).
